According to US20070270421A1, “Novel pyridine Derivative and Pyrimidine Derivative (1)” (priority 2004, published 2007):

Each molecule was assayed against T1, HGFR (His6-HGFR cytoplasmic domain) (Homo sapiens, UniProt P08581) (assay: Inhibitory activity against HGFR tyrosine kinase activity (HTRF)). Conditions: biotin-poly(GT), ATP, 30° C. 10 min, read-out: IC50 (concentration necessary to inhibit HGFR kinase activity by 50%).
T1 construct: made in house; host or cells: Spodoptera frugiperda Sf9 insect cells (baculovirus, pFastBac-HT)
T1 sequence (P08581 956-1390 limits assumed): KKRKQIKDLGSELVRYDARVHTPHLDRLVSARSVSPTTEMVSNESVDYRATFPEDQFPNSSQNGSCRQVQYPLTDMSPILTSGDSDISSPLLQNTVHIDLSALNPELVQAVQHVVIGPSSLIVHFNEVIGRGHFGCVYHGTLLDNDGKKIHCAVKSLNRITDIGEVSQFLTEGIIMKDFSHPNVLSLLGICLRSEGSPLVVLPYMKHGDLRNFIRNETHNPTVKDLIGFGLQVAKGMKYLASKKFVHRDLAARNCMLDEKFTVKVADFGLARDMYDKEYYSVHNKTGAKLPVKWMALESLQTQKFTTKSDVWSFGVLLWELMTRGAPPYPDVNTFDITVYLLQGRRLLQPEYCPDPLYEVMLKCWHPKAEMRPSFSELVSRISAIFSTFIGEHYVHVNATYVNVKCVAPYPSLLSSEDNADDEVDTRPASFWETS
Assay type: biochemical
Description: The cytoplasmic domain of HGFR (Genbank Accession No. J02958) is a 1.3 kb DNA fragment beginning with Lys974 and including a stop codon, and described by Park et al. (Proc. Natl. Acad. Sci. U.S.A. 84(18), 6379-6383, 1987). The DNA fragment was isolated from the human placental cDNA library (purchased from Clontech) by PCR (TaKaRa Ex Taq™ Kit, purchased from TaKaRa) using two kinds of primers (SEQ ID NO: 1, 5′-[…]-3′ and SEQ ID NO: 2, 5′-[…]-3′, purchased from Invitrogen). The DNA fragment was cloned into a baculovirus transplace vector (pFastBac™-HT (purchased from GIBCO BRL)) to produce a recombinant construct. The construct was transfected into insect cells (Spodoptera frugiperda 9 (Sf9)) to produce a solution of HGFR transfected baculovirus (preparation of a recombinant baculovirus can be found in the standard text (Bac-to-Bac Baculovirus Expression System (GIBCO BRL)). The cloning of the other receptor tyrosine kinases and preparation of the recombinant baculovirus solutions were performed using a cytoplasmic fragment starting from Lys791 (VEGFR2, Genbank Accession No. L04947), a cytoplasmic fragment starting from Lys398 (FGFR1, Genbank Accession No. X52833) and a cytoplasmic fragment starting from Lys558 (PDGFRβ, Genbank Accession No. M21616) in stead of HGFR in the above method. EGFR was purchased from Sigma (Production No. E-2645).
To the suspension of Sf9 cells (3×10^8 cells) in SF-900II medium (purchased from Invitrogen) containing 2% FBS was added a solution of HGFR transfected baculovirus above (4 ml), followed by a shaking culture at 27° C. for 48 hrs. The cells infected with the HGFR transfected baculovirus were centrifuged at 1,000 rpm, 4° C. for 5 min to remove the supernatant. The precipitated infected cells were suspended in 80 ml of ice-cold PBS, and centrifuged at 1,000 rpm, 4° C. for 5 min to remove the supernatant. The precipitated infected cells were suspended in 40 ml of ice-cold Lysis Buffer (50 mM Tris-HCl (pH 8.5), 5 mM 2-mercaptoethanol, 100 mM KCl, 1 mM PMSF and 1% (v/v) NP-40). The suspension was centrifuged at 12,000 rpm, 4° C. for 30 min to provide a supernatant.
The supernatant was loaded onto an Ni-NTA agarose column (3 ml, purchased from Qiagen) equilibrated with 30 ml of Buffer A (20 mM Tris-HCl (pH 8.5), 5 mM 2-mercaptoethanol, 500 mM KCl, 20 mM imidazole and 10% (v/v) glycerol). The column was washed with 30 ml of Buffer A, 6 ml of Buffer B (20 mM Tris-HCl (pH 8.5), 5 mM 2-mercaptoethanol, 1 M KCl, and 10% (v/v) glycerol) and 6 ml of Buffer A in this order. Then, the column was eluted with 6 ml of Buffer C (20 mM Tris-HCl (pH 8.5), 5 mM 2-mercaptoethanol, 100 mM KCl, 100 mM imidazole, and 10% (v/v) glycerol) to provide a fraction. The fraction was entrapped in a dialysis membrane (purchased from Spectrum Laboratories), dialyzed at 4° C. overnight with 1 L of dialysis buffer (20 mM Tris-HCl (pH 7.5), 10% (v/v) glycerol, 1 mM dithiothreitol, 0.1 mM Na3VO4 and 0.1 mM EGTA), and stored at −80° C. until used. An aliquot of the dialyzed fraction was subjected to SDS electrophoresis, and then a recombinant protein (His6-HGFR, the HGFR cytoplasmic domain fused with six histidine at the N terminus) detected at a molecular weight of about 60 kDa when stained with Coomassie Brilliant Blue, was determined with regard to protein content using BSA (purchased from Sigma) as a standard. The VEGFR2 cytoplasmic domain, the FGFR1 cytoplasmic domain, and the PDGFRβ cytoplasmic domain were fused with six histidine at the N terminus by the similar method to produce respective recombinant proteins (His6-VEGFR2, His6-FGFR1, and His6-PDGFRβ). […]
An IC50 of 48 nM was found for `CN1CCC[C@@H](N(C)C(=O)Nc2cc(Oc3ccc(NC(=S)NC(=O)Cc4ccc(F)cc4)cc3F)ncn2)C1` [Example 312, 3-[6-(2-Fluoro-4-{3-[2-(4-fluorophenyl)acetyl]thioureido}phenoxy)pyrimidin-4-yl]-1-methyl-1-[(3R)-1-methylpiperidin-3-yl]urea] in this work. An IC50 of 81 nM was found for `CN(C)[C@@H]1CCN(C(=O)Nc2cc(Oc3ccc(NC(=S)NC(=O)Cc4ccccc4)cc3F)ccn2)C1` [Example 245, 2-{[(3R)-3-Dimethylaminopyrrolidin-1-yl]carbonylamino}-4-{2-fluoro-4-[3-(2-phenylacetyl)thioureido]phenoxy}pyridine] in this work. An IC50 of 45 nM was found for `O=C(Cc1ccc(F)cc1)NC(=S)Nc1ccc(Oc2ccnc(NC(=O)N3CCC(CN4CCC4)CC3)c2)cc1` [Example 394, 4-(Azetidin-1-ylmethyl)piperidine-1-carboxylic acid [4-(4-{3-[2-(4-fluorophenyl)acetyl]thioureido}phenoxy)pyridin-2-yl]amide] in this work. An IC50 of 38 nM was found for `CN(C)CC1CCN(C(=O)Nc2cc(Oc3ccc(NC(=S)NC(=O)Cc4ccc(F)cc4)cc3F)ncn2)CC1` [Example 180, 4-{[4-(Dimethylaminomethyl)piperidin-1-yl]carbonylamino}-6-(2-fluoro-4-{3-[2-(4-fluorophenyl)acetyl]thioureido}phenoxy)pyrimidine] in this work. An IC50 of 100 nM was found for `CN1CCC(N2CCN(C(=O)Nc3cc(Oc4ccc(NC(=O)NC(=O)Cc5ccc(F)cc5)cc4)ccn3)CC2)CC1` [Example 346, 4-(4-{3-[2-(4-Fluorophenyl)acetyl]ureido}phenoxy)-2-{[4-(1-methylpiperidin-4-yl)piperazin-1-yl]carbonylamino}pyridine] in this work. An IC50 of 120 nM was found for `CN1CCN(C2CCN(C(=O)Nc3cc(Oc4ccc(NC(=O)NC(=O)Cc5ccc(F)cc5)cc4F)ccn3)CC2)CC1` [Example 343, 4-(2-Fluoro-4-{3-[2-(4-fluorophenyl)acetyl]ureido}phenoxy)-2-{[4-(1-methylpiperazin-4-yl)piperidin-1-yl]carbonylamino}pyridine] in this work. An IC50 of 54 nM was found for `CCC(=O)Nc1cc(Oc2ccc(NC(=O)CC(=O)Nc3ccc(F)cc3)c(F)c2)ccn1` [Example 75, N-(4-Fluorophenyl)-N′-[4-(2-propionylaminopyridin-4-yloxy)-2-fluorophenyl]malonamide] in this work. An IC50 of 12 nM was found for `CN(C)C(=O)Nc1cc(Oc2ccc(NC(=O)CC(=O)Nc3ccc(F)cc3)c(F)c2)ccn1` [Example 84, N-{4-[2-(3,3-Dimethylureido)pyridin-4-yloxy]-2-fluorophenyl}-N′-(4-fluorophenyl)malonamide] in this work. An IC50 of 130 nM was found for `O=C(Cc1ccc(F)cc1)NC(=S)Nc1ccc(Oc2cc(NC(=O)N3CCN(CCN4CCCC4)CC3)ncn2)c(F)c1` [Example 339, 4-(2-Pyrrolidin-1-ylethyl)piperazine-1-carboxylic acid [6-(2-fluoro-4-{3-[2-(4-fluorophenyl)acetyl]thioureido}phenoxy)pyrimidin-4-yl]amide] in this work. An IC50 of 83 nM was found for `CN(C)[C@H]1CCN(C(=O)Nc2cc(Oc3ccc(NC(=S)NC(=O)Cc4ccc(F)cc4)cc3F)ncn2)C1` [Example 254, 4-{[(3S)-3-Dimethylaminopyrrolidin-1-yl]carbonylamino}-6-(2-fluoro-4-{3-[2-(4-fluorophenyl)acetyl]thioureido}phenoxy)pyrimidine] in this work. An IC50 of 62 nM was found for `CN(C)CCN1CCC(N(C)C(=O)Nc2cc(Oc3ccc(NC(=S)NC(=O)Cc4ccc(F)cc4)cc3)ccn2)CC1` [Example 194, 1-[1-(2-Dimethylaminoethyl)piperidin-4-yl]-3-[4-(4-{3-[2-(4-fluorophenyl)acetyl]thioureido}phenoxy)pyridin-2-yl]-1-methylurea] in this work. An IC50 of 150 nM was found for `CN1CC(N2CCN(C(=O)Nc3cc(Oc4ccc(NC(=S)NC(=O)Cc5ccc(F)cc5)cc4)ccn3)CC2)C1` [Example 337, 4-(1-Methylazetidin-3-yl)piperazine-1-carboxylic acid [4-(4-{3-[2-(4-fluorophenyl)acetyl]thioureido}phenoxy)pyridin-2-yl]amide] in this work. An IC50 of 64 nM was found for `CN1CCC(N2CCN(C(=O)Nc3cc(Oc4ccc(NC(=S)NC(=O)Cc5ccc(F)cc5)cc4)ccn3)CC2)CC1` [Example 329, 4-(4-{3-[2-(4-Fluorophenyl)acetyl]thioureido}phenoxy)-2-{[4-(1-methylpiperidin-4-yl)piperazin-1-yl]carbonylamino}pyridine] in this work. An IC50 of 70 nM was found for `CN1CCN(C2CCN(C(=O)Nc3cc(Oc4ccc(NC(=S)NC(=O)Cc5ccccc5)cc4F)ccn3)CC2)CC1` [Example 182, 4-{2-Fluoro-4-[3-(2-phenylacetyl)thioureido]phenoxy}-2-{[4-(1-methylpiperazin-4-yl)piperidin-1-yl]carbonylamino}pyridine] in this work. An IC50 of 56 nM was found for `CN(C)C(=O)Nc1cc(Oc2ccc(NC(=S)NC(=O)CC3CCCCC3)cc2F)ccn1` [Example 16, 2-[(Dimethylamino)carbonylamino]-4-{2-fluoro-4-[3-(2-cyclohexylacetylthio)ureido]phenoxy}pyridine] in this work. An IC50 of 100 nM was found for `CC(C)C(=O)Nc1cc(Oc2ccc(NC(=O)CC(=O)Nc3ccc(F)cc3)c(F)c2)ccn1` [Example 76, N-(4-Fluorophenyl)-N′-[4-(2-isobutylylaminopyridin-4-yloxy)-2-fluorophenyl]malonamide] in this work. An IC50 of 130 nM was found for `O=C(CC(=O)Nc1ccc(Oc2ccnc(NC(=O)N3CCC(N4CCCCC4)CC3)c2)cc1F)Nc1ccc(F)cc1` [Example 78, N-(4-Fluorophenyl)-N′-{2-fluoro-4-[({[4-(piperidin-1-yl)piperidin-1-yl]carbonyl}amino)pyridin-4-yloxy]phenyl}malonamide] in this work. An IC50 of 200 nM was found for `O=C(Cc1ccccc1)NC(=S)Nc1ccc(Oc2ccnc(NC(=O)N3CCC3)c2)cc1Cl` [Example 100, Azetidine-1-carboxylic acid {4-[3-chloro-4-(3-phenylacetylthioureido)phenoxy]pyridin-2-yl}amide] in this work. An IC50 of 120 nM was found for `CN(C)CCN1CCCN(C(=O)Nc2cc(Oc3ccc(NC(=S)NC(=O)Cc4ccccc4)cc3F)ccn2)CC1` [Example 334, 4-(2-Dimethylaminoethyl)-[1,4]diazepane-1-carboxylic acid {4-[2-fluoro-4-(3-phenylacetylthioureido)phenoxy]pyridin-2-yl}amide] in this work. An IC50 of 60 nM was found for `O=C(Cc1ccc(F)cc1)NC(=S)Nc1ccc(Oc2ccnc(NC(=O)N3CCC(N4CCC(O)CC4)CC3)c2)cc1` [Example 190, 2-{[4-(4-Hydroxypiperidin-1-yl)piperidin-1-yl]carbonylamino}-4-(4-{3-[2-(4-fluorophenyl)acetyl]thioureido}phenoxy)pyridine] in this work. An IC50 of 100 nM was found for `CN1CCC(N2CCN(C(=O)Nc3cc(Oc4ccc(NC(=O)NC(=O)Cc5ccccc5)cc4F)ccn3)CC2)CC1` [Example 341, 4-{2-Fluoro-4-[3-(2-phenylacetyl)ureido]phenoxy}-2-{[4-(1-methylpiperidin-4-yl)piperazin-1-yl]carbonylamino}pyridine] in this work. An IC50 of 110 nM was found for `CN1CCN(C2CCN(C(=O)Nc3cc(Oc4ccc(NC(=O)NC(=O)Cc5ccc(F)cc5)cc4)ccn3)CC2)CC1` [Example 344, 4-(4-{3-[2-(4-Fluorophenyl)acetyl]ureido}phenoxy)-2-{[4-(1-methylpiperazin-4-yl)piperidin-1-yl]carbonylamino}pyridine] in this work.
